According to PMC11882969 (Nature Communications, 2025):
Values joined by “and” are separate entries in the source; they are usually repeats but may differ in a detail not shown here. Identical values can stand only once.

Columns and labels:
CB1 (rCB1) = CB1 (rCB1) (Rattus norvegicus, UniProt P20272); assay: Single-point radioligand displacement screen; format: binding
[1] = Dynamic light scattering, colloidal aggregation; format: physicochemical; settings: Log[compound, replicates, sheet FigS2b
Method: Samples were prepared as 8-point half-log dilutions in filtered 50 mM KPi buffer, pH 7.0 with final DMSO concentration at 1% (v/v). Colloidal particle formation was measured using DynaPro Plate Reader II (Wyatt Technologies). All compounds were screened in triplicate.

hCB1 = hCB1 (Homo sapiens, UniProt P21554); assay: bioSensAll ebBRET signaling profiling, hCB1; format: cell-based; design: host or cells: HEK293SL cells, transient PEI transfection; settings: for Gi1 hCB1 response: Gi1 biosensor; for Gi1 hCB1 / GoB hCB1: single replicate values, FigS6a
Sequence of hCB1 (P21554 whole entry): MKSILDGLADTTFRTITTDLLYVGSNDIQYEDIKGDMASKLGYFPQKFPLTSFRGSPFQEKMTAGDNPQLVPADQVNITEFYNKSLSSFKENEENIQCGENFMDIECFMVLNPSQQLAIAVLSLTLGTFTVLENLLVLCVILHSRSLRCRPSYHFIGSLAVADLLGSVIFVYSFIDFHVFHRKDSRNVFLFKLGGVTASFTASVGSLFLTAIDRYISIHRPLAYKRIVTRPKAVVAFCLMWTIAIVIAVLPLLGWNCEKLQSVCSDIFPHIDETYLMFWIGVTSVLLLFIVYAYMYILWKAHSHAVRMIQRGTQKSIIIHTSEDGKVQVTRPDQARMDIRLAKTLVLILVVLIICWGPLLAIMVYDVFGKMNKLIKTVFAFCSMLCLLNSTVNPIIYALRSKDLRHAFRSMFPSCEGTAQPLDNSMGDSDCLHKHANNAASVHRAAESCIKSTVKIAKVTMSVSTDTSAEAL

Sequence of CB1 (rCB1) (P20272 whole entry): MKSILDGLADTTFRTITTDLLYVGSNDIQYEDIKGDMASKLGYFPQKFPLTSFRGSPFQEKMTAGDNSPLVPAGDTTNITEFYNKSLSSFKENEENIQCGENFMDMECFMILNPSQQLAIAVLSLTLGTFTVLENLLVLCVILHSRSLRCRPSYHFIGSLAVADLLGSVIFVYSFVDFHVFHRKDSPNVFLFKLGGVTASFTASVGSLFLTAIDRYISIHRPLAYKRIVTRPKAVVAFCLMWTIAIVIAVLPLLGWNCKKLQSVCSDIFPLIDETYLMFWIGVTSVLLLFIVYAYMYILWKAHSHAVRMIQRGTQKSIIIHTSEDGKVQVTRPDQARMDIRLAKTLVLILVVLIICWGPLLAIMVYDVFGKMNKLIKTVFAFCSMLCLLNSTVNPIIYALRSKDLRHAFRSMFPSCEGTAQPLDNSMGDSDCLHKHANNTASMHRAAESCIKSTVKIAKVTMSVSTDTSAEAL

Compound: COC(=O)C(NC(=O)c1cc(C)n(-c2cccc(F)c2)n1)c1cccs1 (centres unmarked) [‘51486]
- % 1H-CP-55,940 displacement (mean) from single point screen (CB1 (rCB1); 10 µM, 1 µM or 300 nM by cell colour (not visible)): 90.60%
- rep1_displacement (CB1 (rCB1); Figure 1c source data, replicate 1): 90.6
- DLS scattering intensity ([1]; uM] 0): 759657 and 686584 and 965322
- DLS scattering intensity ([1]; uM] 0.5): 1020197 and 797976 and 985220
- DLS scattering intensity ([1]; uM] 1): 599581 and 807564 and 813072
- DLS scattering intensity ([1]; uM] 1.49996): 1081636 and 666504 and 646696
- DLS scattering intensity ([1]; uM] 2): 2657372 and 4460546 and 3577303
- DLS scattering intensity ([1]; uM] -0.500011): 732851 and 712729 and 950123
- DLS scattering intensity ([1]; uM] -1): 747604 and 1271629 and 624256
- DLS scattering intensity ([1]; uM] -1.5): 774618 and 1013605 and 787428
- Gi1 hCB1 response (hCB1; Log [Compound] (M) -4.22186): 123.512
- Gi1 hCB1 response (hCB1; Log [Compound] (M) -4.63927): 98.3102
- Gi1 hCB1 response (hCB1; Log [Compound] (M) -5.05788): 74.9216
- Gi1 hCB1 response (hCB1; Log [Compound] (M) -5.47381): 77.764
- Gi1 hCB1 response (hCB1; Log [Compound] (M) -5.89285): 72.6387
- Gi1 hCB1 response (hCB1; Log [Compound] (M) -6.31878): 38.0146
- Gi1 hCB1 response (hCB1; Log [Compound] (M) -6.72585): 33.2921
- Gi1 hCB1 response (hCB1; Log [Compound] (M) -7.14267): -1.511
- Gi1 hCB1 response (hCB1; Log [Compound] (M) -7.55284): -15.3428
- Gi1 hCB1 response (hCB1; Log [Compound] (M) -8): 9.7692
- Gi1 hCB1 response (hCB1; Log [Compound] (M) -8.22186): 0.839
- Gi1 hCB1 response (hCB1; Log [Compound] (M) -8.39794): -12.3884
- Gi1 hCB1 response (hCB1; Log [Compound] (M) -8.68787): 2.204
- Gi1 hCB1 response (hCB1; Log [Compound] (M) -9.15521): -11.247
- Gi1 hCB1 response (hCB1; Log [Compound] (M) -9.61989): -13.1718
- Gi1 hCB1 response (hCB1; Log [Compound] (M) -10.0969): -6.323
- Gi1 hCB1 response (hCB1; Log [Compound] (M) -10.5529): -17.8943
- Gi1 hCB1 response (hCB1; Log [Compound] (M) -11.0177): -4.935
- Gi1 hCB1 response (hCB1; Log [Compound] (M) -11.4949): -5.54
- Gi1 hCB1 response (hCB1; Log [Compound] (M) -11.9208): -6.838
- Gi1 hCB1 response (hCB1; Log [Compound] (M) -12.3979): -1.466
- Gi1 hCB1 response (hCB1; Log [Compound] (M) -12.8861): -7.42
- Gi1 hCB1 response (hCB1; Log [Compound] (M) -13, individual replicate values): -9.747 and -10.7098
- Gi1 hCB1 (hCB1; Log [Compound] (M) -4.22186): 75.4915
- GoB hCB1 (hCB1; Log [Compound] (M) -4.22186): 69.3873
- Gi1 hCB1 (hCB1; Log [Compound] (M) -4.63927): 68.0453
- GoB hCB1 (hCB1; Log [Compound] (M) -4.63927): 69.0456
- Gi1 hCB1 (hCB1; Log [Compound] (M) -5.05788): 65.332
- GoB hCB1 (hCB1; Log [Compound] (M) -5.05788): 68.5421
- Gi1 hCB1 (hCB1; Log [Compound] (M) -5.47381): 58.8724
- GoB hCB1 (hCB1; Log [Compound] (M) -5.47381): 63.2909
- Gi1 hCB1 (hCB1; Log [Compound] (M) -5.89285): 46.1383
- GoB hCB1 (hCB1; Log [Compound] (M) -5.89285): 45.7032
- Gi1 hCB1 (hCB1; Log [Compound] (M) -6.31878): 23.9076
- GoB hCB1 (hCB1; Log [Compound] (M) -6.31878): 23.3139
- Gi1 hCB1 (hCB1; Log [Compound] (M) -6.72585): 13.671
- GoB hCB1 (hCB1; Log [Compound] (M) -6.72585): 15.8509
- Gi1 hCB1 (hCB1; Log [Compound] (M) -7.14267): 3.866
- GoB hCB1 (hCB1; Log [Compound] (M) -7.14267): 8.064
- Gi1 hCB1 (hCB1; Log [Compound] (M) -7.55284): 0.7982
- GoB hCB1 (hCB1; Log [Compound] (M) -7.55284): 4.971
- Gi1 hCB1 (hCB1; Log [Compound] (M) -8): -0.466
- GoB hCB1 (hCB1; Log [Compound] (M) -8): 0.09744
- Gi1 hCB1 (hCB1; Log [Compound] (M) -8.22186): 0.05819
- GoB hCB1 (hCB1; Log [Compound] (M) -8.22186): -3.517
- Gi1 hCB1 (hCB1; Log [Compound] (M) -8.39794): 0.459
- GoB hCB1 (hCB1; Log [Compound] (M) -8.39794): -0.9816
- Gi1 hCB1 (hCB1; Log [Compound] (M) -8.68787): -0.3118
- GoB hCB1 (hCB1; Log [Compound] (M) -8.68787): -2.33
